Laboratory results: patent US20240158446A1, “CYCLIC COMPOUND HAVING SELECTIVE INHIBITORY ACTION ON KRAS OVER HRAS AND NRAS” (CHUGAI SEIYAKU KABUSHIKI KAISHA, priority 2021, published 2024)

Experiments:
[1] = molecular target: GDP-bound KRAS wild-type protein (Homo sapiens, UniProt P01116); assay: Binding to KRAS by surface plasmon resonance (SPR), Single Cycle Kinetics; details: SPR Single Cycle Kinetics, GDP-bound KRAS wild-type protein, 1:1 binding model; read-out: KRAS KD
[2] = molecular target: GDP-bound NRAS wild-type protein (Homo sapiens, UniProt P01111); assay: Binding to NRAS by surface plasmon resonance (SPR), Single Cycle Kinetics; details: SPR KD ratio NRAS/KRAS, class symbols
GDP-bound NRAS wild-type protein, sequence (P01111 whole entry): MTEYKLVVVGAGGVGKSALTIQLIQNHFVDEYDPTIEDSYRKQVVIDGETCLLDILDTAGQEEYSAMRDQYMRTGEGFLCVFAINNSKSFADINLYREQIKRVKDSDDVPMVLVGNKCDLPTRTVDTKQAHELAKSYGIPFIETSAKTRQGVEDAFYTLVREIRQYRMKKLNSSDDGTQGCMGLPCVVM

[3] = molecular target: GDP-bound HRAS wild-type protein (Homo sapiens, UniProt P01112); assay: Binding to HRAS by surface plasmon resonance (SPR), Single Cycle Kinetics; details: SPR KD ratio HRAS/KRAS, class symbols
GDP-bound HRAS wild-type protein, sequence (P01112 whole entry): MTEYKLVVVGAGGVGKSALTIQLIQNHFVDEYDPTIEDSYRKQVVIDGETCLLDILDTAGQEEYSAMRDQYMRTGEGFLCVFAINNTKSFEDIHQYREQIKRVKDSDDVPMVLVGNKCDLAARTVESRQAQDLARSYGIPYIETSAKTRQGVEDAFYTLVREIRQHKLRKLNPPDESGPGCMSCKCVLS

GDP-bound KRAS wild-type protein, sequence (P01116 whole entry): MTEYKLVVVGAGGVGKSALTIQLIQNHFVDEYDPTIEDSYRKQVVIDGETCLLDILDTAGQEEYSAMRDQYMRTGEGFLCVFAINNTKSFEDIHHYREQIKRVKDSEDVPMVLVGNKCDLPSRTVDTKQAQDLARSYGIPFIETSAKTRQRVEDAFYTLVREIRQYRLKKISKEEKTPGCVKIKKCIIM

SMILES | Kd [1] | NRAS/KRAS (ratio of KD value with respect to GDP-bound NRAS wild-type protein to KD value with respect to KRAS) [2] | HRAS/KRAS (ratio of KD value with respect to GDP-bound HRAS wild-type protein to KD value with respect to KRAS) [3]
CCO[C@@H]1C[C@H]2C(=O)NC3(CCC3)C(=O)N(C)[C@@H](C3CCCC3)C(=O)N(C)[C@H](C(=O)N(C)C)CC(=O)N(C)[C@@H](CC3CCCC3)C(=O)N[C@@H]([C@@H](C)CC)C(=O)N(C)CC(=O)N(C)[C@H]3C/C=C\CCN(C3=O)[C@@H](Cc3ccc(C)cc3)C(=O)N(C)CC(=O)N[C@@H](CCc3ccc(C4CC4)c(F)c3)C(=O)N2C1 [PP2683] | 0.87 nM | A (a compound having 10 or more and less than 20 is denoted as A) | A (a compound having 10 or more and less than 20 is denoted as A)
CCO[C@@H]1C[C@H]2C(=O)NC3(CCC3)C(=O)N(C)[C@@H](C3CCCC3)C(=O)N(C)[C@H](C(=O)N(C)C)CC(=O)N(C)[C@@H](CC3CCCC3)C(=O)N[C@@H]([C@@H](C)CC)C(=O)N(C)CC(=O)N(C)[C@H]3C/C=C\CCN(C3=O)[C@@H](Cc3ccc(C)cc3)C(=O)N(C)CC(=O)N[C@@H](CCc3ccc(C4CC4)c(C)c3)C(=O)N2C1 [PP2685] | 2.1 nM | A (a compound having 10 or more and less than 20 is denoted as A) | A (a compound having 10 or more and less than 20 is denoted as A)
CCO[C@@H]1C[C@H]2C(=O)NC3(CC(C)(C)C3)C(=O)N(C)[C@@H](CC3CCC3)C(=O)N(C)[C@H](C(=O)N(C)C)CC(=O)N(C)[C@@H](COC)C(=O)N[C@@H]([C@@H](C)CC)C(=O)N(C3CC3)CC(=O)N(C)[C@H]3C/C=C\CCN(C3=O)[C@@H](Cc3ccc(C(F)(F)F)cc3)C(=O)N(C)CC(=O)N[C@@H](CCc3cc(F)c(C(F)(F)F)c(F)c3)C(=O)N2C1 [PP2769] | 2.5 nM | AA (a compound having 20 or more is denoted as AA) | A (a compound having 10 or more and less than 20 is denoted as A)
CCC[C@H]1C(=O)N[C@@H]([C@@H](C)CC)C(=O)N(C2CC2)CC(=O)N(C)[C@H]2C/C=C\CCN(C2=O)[C@@H](Cc2ccc(C(F)(F)F)cc2)C(=O)N(C)CC(=O)N[C@@H](CCc2ccc(C(F)(F)F)c(OC)c2)C(=O)N2C[C@H](OCC)C[C@H]2C(=O)NC2(CC(C)(C)C2)C(=O)N(C)[C@@H](CC2CCC2)C(=O)N(C)[C@H](C(=O)N(C)C)CC(=O)N1C [PP2770] | 5 nM | A (a compound having 10 or more and less than 20 is denoted as A) | A (a compound having 10 or more and less than 20 is denoted as A)
CCO[C@@H]1C[C@H]2C(=O)NC3(CC(C)(C)C3)C(=O)N(C)[C@@H](CC3CCC3)C(=O)N(C)[C@H](C(=O)N(C)C)CC(=O)N(C)[C@@H](COC)C(=O)N[C@@H]([C@@H](C)CC)C(=O)N(C3CC3)CC(=O)N(C)[C@H]3C/C=C\CCN(C3=O)[C@@H](Cc3ccc(C(F)(F)F)cc3)C(=O)N(C)CC(=O)N[C@@H](CCc3ccc(C(F)(F)F)c(OC)c3)C(=O)N2C1 [PP2771] | 2.2 nM | AA (a compound having 20 or more is denoted as AA) | A (a compound having 10 or more and less than 20 is denoted as A)
CCO[C@@H]1C[C@H]2C(=O)NC3(CCC3)C(=O)N(C)[C@@H](CC(C)(C)C)C(=O)N(C)[C@H](C(=O)N3CCCC3)CC(=O)N(C)[C@@H](CC)C(=O)N[C@@H]([C@@H](C)CC)C(=O)N(C)CC(=O)N(C)[C@H]3C/C=C\CCN(C3=O)[C@@H](CC3CCCCC3)C(=O)N(C)CC(=O)N[C@@H](CCc3cc(F)c(C(F)(F)F)c(F)c3)C(=O)N2C1 [PP2772] | 0.43 nM | B (a compound having 3 or more and less than 10 is denoted as B) | B (a compound having 3 or more and less than 10 is denoted as B)
CCO[C@@H]1C[C@H]2C(=O)NC3(CC(C)(C)C3)C(=O)N(C)[C@@H](CC(C)(C)C)C(=O)N(C)[C@H](C(=O)N(C)C)CC(=O)N(C)[C@@H](C(C)C)C(=O)N[C@@H]([C@@H](C)CC)C(=O)N(C)CC(=O)N(C)[C@H]3C/C=C\CCN(C3=O)[C@@H](Cc3ccc(C(F)(F)F)cc3)C(=O)N(C)CC(=O)N[C@@H](CCc3ccc(C(F)(F)F)c(OC)c3)C(=O)N2C1 [PP2773] | 0.52 nM | B (a compound having 3 or more and less than 10 is denoted as B) | B (a compound having 3 or more and less than 10 is denoted as B)
CCC[C@H]1C(=O)N[C@@H]([C@@H](C)CC)C(=O)N(C)CC(=O)N(C)[C@H]2C/C=C\CCN(C2=O)[C@@H](Cc2ccc(C(F)(F)F)cc2)C(=O)N(C)CC(=O)N[C@@H](CCc2ccc(CC)c(Cl)c2)C(=O)N2C[C@H](OCC)C[C@H]2C(=O)NC2(CC(C)(C)C2)C(=O)N(C)[C@@H](C(CC)CC)C(=O)N(C)[C@H](C(=O)N(C)C)CC(=O)N1C [PP2777] | 2.4 nM | AA (a compound having 20 or more is denoted as AA) | A (a compound having 10 or more and less than 20 is denoted as A)
CCC[C@H]1C(=O)N[C@@H]([C@@H](C)CC)C(=O)N(C)CC(=O)N(C)[C@H]2C/C=C\CCN(C2=O)[C@@H](Cc2ccc(C)cc2)C(=O)N(C)CC(=O)N[C@@H](CCc2ccc(CC)c(Cl)c2)C(=O)N2C[C@H](OCC)C[C@H]2C(=O)NC2(CC(C)(C)C2)C(=O)N(C)[C@@H](C2CCCC2)C(=O)N(C)[C@H](C(=O)N(C)C)CC(=O)N1C [PP2778] | 0.62 nM | A (a compound having 10 or more and less than 20 is denoted as A) | A (a compound having 10 or more and less than 20 is denoted as A)
CCC[C@H]1C(=O)N[C@@H]([C@@H](C)CC)C(=O)N(C)CC(=O)N(C)[C@H]2C/C=C\CCN(C2=O)[C@@H](Cc2ccc(C(F)(F)F)cc2)C(=O)N(C)CC(=O)N[C@@H](CCc2cc(F)c(C(F)F)c(F)c2)C(=O)N2C[C@H](OCC)C[C@H]2C(=O)NC2(CC(C)(C)C2)C(=O)N(C)[C@@H](C2CCCC2)C(=O)N(C)[C@H](C(=O)N(C)C)CC(=O)N1C [PP2780] | 0.3 nM | A (a compound having 10 or more and less than 20 is denoted as A) | A (a compound having 10 or more and less than 20 is denoted as A)
CCC[C@H]1C(=O)N[C@@H]([C@@H](C)CC)C(=O)N(C)CC(=O)N(C)[C@H]2C/C=C\CCN(C2=O)[C@@H](Cc2ccc(C(F)(F)F)cc2)C(=O)N(C)CC(=O)N[C@@H](CCc2cc(F)c(C(F)F)c(F)c2)C(=O)N2C[C@H](OCC)C[C@H]2C(=O)NC2(CC(C)(C)C2)C(=O)N(C)[C@@H](C(CC)CC)C(=O)N(C)[C@H](C(=O)N(C)C)CC(=O)N1C [PP2781] | 1.5 nM | AA (a compound having 20 or more is denoted as AA) | A (a compound having 10 or more and less than 20 is denoted as A)
CCC[C@H]1C(=O)N[C@@H]([C@@H](C)CC)C(=O)N(C)CC(=O)N(C)[C@H]2C/C=C\CCN(C2=O)[C@@H](Cc2ccc(C)cc2)C(=O)N(C)CC(=O)N[C@@H](CCc2cc(F)c(C(F)F)c(F)c2)C(=O)N2C[C@H](OCC)C[C@H]2C(=O)NC2(CC(C)(C)C2)C(=O)N(C)[C@@H](C2CCCC2)C(=O)N(C)[C@H](C(=O)N(C)C)CC(=O)N1C [PP2782] | 0.49 nM | A (a compound having 10 or more and less than 20 is denoted as A) | A (a compound having 10 or more and less than 20 is denoted as A)
CCC[C@H]1C(=O)N[C@@H]([C@@H](C)CC)C(=O)N(C)CC(=O)N(C)[C@H]2C/C=C\CCN(C2=O)[C@@H](Cc2ccc(C(F)(F)F)cc2)C(=O)N(C)CC(=O)N[C@@H](CCc2ccc(Cl)c(C(F)(F)F)c2)C(=O)N2C[C@H](OCC)C[C@H]2C(=O)NC2(CC(C)(C)C2)C(=O)N(C)[C@@H](C2CCCC2)C(=O)N(C)[C@H](C(=O)N(C)C)CC(=O)N1C [PP2784] | 0.13 nM | A (a compound having 10 or more and less than 20 is denoted as A) | A (a compound having 10 or more and less than 20 is denoted as A)
CCC[C@H]1C(=O)N[C@@H]([C@@H](C)CC)C(=O)N(C)CC(=O)N(C)[C@H]2C/C=C\CCN(C2=O)[C@@H](Cc2ccc(C(F)(F)F)cc2)C(=O)N(C)CC(=O)N[C@@H](CCc2ccc(Cl)c(C(F)(F)F)c2)C(=O)N2C[C@H](OCC)C[C@H]2C(=O)NC2(CC(C)(C)C2)C(=O)N(C)[C@@H](C(CC)CC)C(=O)N(C)[C@H](C(=O)N(C)C)CC(=O)N1C [PP2785] | 0.26 nM | AA (a compound having 20 or more is denoted as AA) | A (a compound having 10 or more and less than 20 is denoted as A)
CCC[C@H]1C(=O)N[C@@H]([C@@H](C)CC)C(=O)N(C)CC(=O)N(C)[C@H]2C/C=C\CCN(C2=O)[C@@H](Cc2ccc(C)cc2)C(=O)N(C)CC(=O)N[C@@H](CCc2ccc(Cl)c(C(F)(F)F)c2)C(=O)N2C[C@H](OCC)C[C@H]2C(=O)NC2(CC(C)(C)C2)C(=O)N(C)[C@@H](C2CCCC2)C(=O)N(C)[C@H](C(=O)N(C)C)CC(=O)N1C [PP2786] | 0.14 nM | A (a compound having 10 or more and less than 20 is denoted as A) | A (a compound having 10 or more and less than 20 is denoted as A)
